One test deals with HT-29. Kind of test: Cancer cell growth inhibition (CellTiter-Glo), HT-29. The test is classed as cell-based, Human. The settings on record: Homo sapiens; Colorectal Cancer, HT-29, 72 h treatment. On the procedure:
(§1) Cell culture-based assays were used to evaluate the ability of compounds of the invention to inhibit cancer cell growth.
(§2) Cells were obtained from the American Type Culture Collection (ATCC). Cells were cultured at 37° C. with 5% CO2 in the appropriate growth medium (see table below), and harvested respectively during the logarithmic growth period and counted with hemocytometer. The cell viability was examined by trypan blue exclusion. Cell concentrations were adjusted to 5.56×10^4 cells/ml with respective medium.
(§3) Stock solutions of test compounds and positive drugs Doxorubicin (Zhejiang, Haizheng, China), Cisplatin (Nanjing Zhiyao, China) and Mitomycin (Zhejiang, Haizheng, China) were prepared in dimethyl sulphoxide (DMSO) or PBS at 20 mM.
(§4) In order to determine the IC50 for each compound, experiments were carried out in 96-well plates and the cell lines seeded at a density of 5,000 cells/well. […] All treatments were performed in triplicate. 10 μl of drug solution was added to each well and incubated for 72 hours. At the end of the incubation, 100 μl of the CellTiter-Glo Reagent were added to each well and the contents were mixed for 2 munites on an orbital shaker to induce cell lysis. The plate was incubated at room temperature for 10 minutes to stabilize luminiscent signal, and luminiscent was recorded. […] In order to calculate IC50 values, dose-responsive curves were fitted using nonlinear regression model with a sigmoidal dose response.
(In general: ATP-based viability assays read luminescence as a measure of living cells.)

In the next test the test system is HepG2. Kind of test: Cancer cell growth inhibition (CellTiter-Glo), HepG2. The test is classed as cell-based. The settings on record: Homo sapiens; Liver Cancer, HepG2, 72 h treatment. On the procedure:
as §1, §2, §3, §4

The next test relates to RPMI-8226. Kind of test: Cancer cell growth inhibition (CellTiter-Glo), RPMI-8226. In kind it is cell-based, Human. As to conditions: Homo sapiens; Orthotopic Multiple Myeloma, RPMI-8226, 72 h treatment. On the procedure:
as §1, §2, §3, §4

For `O=C(CCCCCNC(=O)c1[nH]c(-c2ccccc2)cc1-c1ccc(O)cc1)NO` [Example 1, N-(6-(hydroxyamino)-6-oxohexyl)-3-(4-hydroxyphenyl)-5-phenyl-1H-pyrrole-2-carboxamide], the figures for the IC50 in the test on HT-29, in the test on HepG2 and in the test on RPMI-8226 were 1.42 µM, 1.1 µM and 0.7 µM, respectively.

Take `O=C(CCCCCNC(=O)c1[nH]c(-c2ccc(O)cc2)cc1-c1ccoc1)NO` [Example 5, 3-(3-furyl)-N-(5-(hydroxycarbamoyl)pentyl)-5-(4-hydroxy-phenyl)-1H-pyrrole-2-carboxamide]: the figures for the half-inhibitory concentration (IC50) in the test with HT-29, in the test on HepG2 and in the test with RPMI-8226 were 3.45 µM, 0.28 µM and 6.2 µM, respectively.

On to `O=C(CCCCCNC(=O)c1[nH]c(-c2ccc(O)cc2)cc1-c1ccccc1)NO` [Example 2, N-(6-(hydroxyamino)-6-oxohexyl)-5-(4-hydroxyphenyl)-3-phenyl-1H-pyrrole-2-carboxamide], for which the half-maximal inhibitory concentration (IC50) – broadly, the concentration that gives 50% inhibition – in the test with HT-29 is 4.04 µM; in the test on HepG2, 0.99 µM; in the test on RPMI-8226, 4.47 µM.

With `O=C(CCCCCNC(=O)c1[nH]c(-c2ccc(O)cc2)cc1-c1ccsc1)NO` [Example 6, N-(5-(hydroxycarbamoyl)pentyl)-5-(4-hydroxyphenyl)-3-(3-thienyl)-1H-pyrrole-2-carboxamide], the half-inhibitory concentration (IC50) in the test with HT-29 amounted to 3.64 µM; in the test on HepG2 it was 0.48 µM; in the test on RPMI-8226, 4.8 µM.

The record behind these values is patent US20150038545A1, “HYDROXYPHENYL PYRROLE COMPOUNDS CONTAINING AN HYDROXAMIC ACID AS HDAC INHIBITORS AND MEDICINAL APPLICATIONS THEREOF” (UNIVERSIDAD DEL PAÍS VASCO, priority 2011, published 2015).
